Experimental data from patent US8778935B2 (Centro Nacional de Investigaciones Oncologicas (CNIO), priority 2009, dated 2014).
pIC50: −log10 of the molar value. Like-named read-outs stand apart in the source and are kept apart here.

Target: T1, PI3K (p110α/p85α) (Homo sapiens, UniProt P42336)
T1 construct: purchased Carna Biosciences 07CBS-0402A
Test: PI3K Activity Assay (ADP Hunter Plus)
Type: biochemical
Description: The kinase activity was measured by using the commercial ADP Hunter™ Plus assay available from DiscoveRx (#33-016), which is a homogeneous assay to measure the accumulation of ADP, a universal product of kinase activity. […] Reaction was carried out for 1 hour at 25° C. Reagent A and B were sequentially added to the wells and plates were incubated for 30 min at 37° C. […] Values were normalized against the control activity included for each enzyme (i.e., 100% PI3 kinase activity, without compound). These values were plot against the inhibitor concentration and were fit to a sigmoid dose-response curve by using the Graphad software.

[1] = quantitative results of Table 4, read-out: PI3Kα IC50
[2] = quantitative results, read-out: PI3Kα IC50
[3] = semi-quantitative results, read-out: PI3Kα IC50 (semi-quantitative class)

T1 sequence (P42336 whole entry): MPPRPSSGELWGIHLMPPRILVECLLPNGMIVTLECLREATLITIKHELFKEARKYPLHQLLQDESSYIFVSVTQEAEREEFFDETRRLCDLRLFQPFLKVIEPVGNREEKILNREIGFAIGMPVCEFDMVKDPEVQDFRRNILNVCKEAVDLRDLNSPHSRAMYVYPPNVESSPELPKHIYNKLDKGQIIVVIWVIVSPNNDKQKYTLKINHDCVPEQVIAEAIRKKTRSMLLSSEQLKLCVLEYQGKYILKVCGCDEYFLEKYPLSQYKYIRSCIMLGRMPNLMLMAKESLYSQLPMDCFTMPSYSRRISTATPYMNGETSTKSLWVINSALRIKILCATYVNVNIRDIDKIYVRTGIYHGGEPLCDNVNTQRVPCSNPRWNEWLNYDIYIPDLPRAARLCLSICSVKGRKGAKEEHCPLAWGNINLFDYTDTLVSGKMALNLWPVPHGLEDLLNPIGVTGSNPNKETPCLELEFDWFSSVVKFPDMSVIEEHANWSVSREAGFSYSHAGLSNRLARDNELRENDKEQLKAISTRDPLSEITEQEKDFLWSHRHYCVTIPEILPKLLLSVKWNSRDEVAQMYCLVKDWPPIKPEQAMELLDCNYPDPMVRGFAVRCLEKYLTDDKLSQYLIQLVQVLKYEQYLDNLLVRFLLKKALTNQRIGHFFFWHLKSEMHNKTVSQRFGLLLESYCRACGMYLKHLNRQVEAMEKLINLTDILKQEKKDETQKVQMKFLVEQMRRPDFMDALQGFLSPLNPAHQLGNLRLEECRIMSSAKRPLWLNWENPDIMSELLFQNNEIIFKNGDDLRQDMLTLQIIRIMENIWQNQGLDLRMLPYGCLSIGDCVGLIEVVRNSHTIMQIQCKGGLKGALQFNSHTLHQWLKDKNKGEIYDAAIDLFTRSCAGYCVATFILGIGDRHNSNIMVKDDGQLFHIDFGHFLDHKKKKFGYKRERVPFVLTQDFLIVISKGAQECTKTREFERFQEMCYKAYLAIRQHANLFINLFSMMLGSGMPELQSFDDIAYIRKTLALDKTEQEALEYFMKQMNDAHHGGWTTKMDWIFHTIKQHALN
T1 sequence (P27986 whole entry partner): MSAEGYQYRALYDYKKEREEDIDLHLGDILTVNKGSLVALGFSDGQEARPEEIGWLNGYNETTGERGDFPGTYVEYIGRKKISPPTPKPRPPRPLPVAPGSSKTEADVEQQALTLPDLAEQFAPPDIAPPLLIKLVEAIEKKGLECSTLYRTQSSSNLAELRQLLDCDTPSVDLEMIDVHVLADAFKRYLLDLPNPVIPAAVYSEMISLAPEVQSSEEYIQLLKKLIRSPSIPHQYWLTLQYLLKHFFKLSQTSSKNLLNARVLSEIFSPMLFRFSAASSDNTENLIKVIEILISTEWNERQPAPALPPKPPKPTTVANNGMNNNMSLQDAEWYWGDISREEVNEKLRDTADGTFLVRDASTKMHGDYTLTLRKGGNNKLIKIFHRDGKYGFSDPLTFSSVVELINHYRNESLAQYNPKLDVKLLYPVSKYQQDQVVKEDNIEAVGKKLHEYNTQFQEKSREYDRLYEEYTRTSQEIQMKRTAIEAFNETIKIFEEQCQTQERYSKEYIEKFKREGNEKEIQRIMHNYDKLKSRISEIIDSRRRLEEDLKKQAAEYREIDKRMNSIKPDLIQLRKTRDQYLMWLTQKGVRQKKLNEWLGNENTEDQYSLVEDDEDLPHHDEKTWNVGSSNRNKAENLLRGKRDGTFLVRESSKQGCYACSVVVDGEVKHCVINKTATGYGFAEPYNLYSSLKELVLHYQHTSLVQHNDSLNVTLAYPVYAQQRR

pIC50 [1]	pIC50 [2]	Compound	also measured
6.03		NC(=O)c1cn2cc(-c3cccc4[nH]ccc34)nc(N3CCOCC3)c2n1 [2-94]	
	6.17	CCOC(=O)c1cn2cc(-c3cccc4[nH]ncc34)nc(N3CCOCC3)c2n1 [2-52, ethyl 6-(1H-indazol-4-yl)-8-morpholinoimidazo[1,2-a]pyrazine-2-carboxylate]	
3.91		NC(=O)c1cn2cc(-c3c(F)ccc4[nH]cc(Cl)c34)nc(N3CCOCC3)c2n1 [2-105]	
6.40		O=C(NCCN1CCOCC1)c1cn2cc(-c3cccnc3)nc(N3CCOCC3)c2n1 [2-159]	
5.64		CC(=O)NCCNC(=O)c1cn2cc(-c3cccnc3)nc(N3CCOCC3)c2n1 [2-158]	
5.10		CC(C)(C)OC(=O)N1CC2CN(Cc3cn4cc(-c5cccc6[nH]ncc56)nc(N5CCOCC5)c4n3)CC2C1 (centres unmarked) [2-99]	
5.28		CS(=O)(=O)N1CCC2(CCN(Cc3cn4cc(-c5cccc6[nH]ncc56)nc(N5CCOCC5)c4n3)CC2)C1 [2-134]	
		Cc1nc2c(N3CCOCC3)nc(-c3cccc4[nH]ncc34)cn2c1C1CCN(C)CC1 [2-58, 6-(1H-indazol-4-yl)-2-methyl-3-(1-methylpiperidin-4-yl)-8-morpholinoimidazo[1,2-a]pyrazine]	pIC50 [3]: 6.00 to 7.00
4.03		NC(=O)c1cn2c(Cl)c(-c3cccc4[nH]cc(Cl)c34)nc(N3CCOCC3)c2n1 [2-104]	
		Nc1ncc(-c2cn3cc(CN4CCNCC4)nc3c(N3CCOCC3)n2)cn1 [2-226]	pIC50 (PI3Kα activity, quantitative results, read-out: PI3Kα IC50): 7.11
	6.60	Cc1cn2c(I)c(-c3cccnc3)nc(N3CCOCC3)c2n1 [2-56, 5-iodo-2-methyl-8-morpholino-6-(pyridin-3-yl)imidazo[1,2-a]pyrazine]	
		Cc1cn2c(Cl)c(-c3cccc(O)c3)nc(N3CCOCC3)c2n1 [2-49, 3-(5-chloro-2-methyl-8-morpholinoimidazo[1,2-a]pyrazin-6-yl)phenol]	pIC50 [3]: 6.00 to 7.00
6.45		O=C(c1cn2cc(-c3cccc4[nH]ncc34)nc(N3CCOCC3)c2n1)N1CCCC1 [2-87]	
6.05		NC(=O)c1cn2cc(-c3c(F)ccc4[nH]ccc34)nc(N3CCOCC3)c2n1 [2-95]	
5.89		NC(=O)c1cn2cc(-c3cnc(N)nc3)nc(N3CCCCC3)c2n1 [2-120]	
	6.68	CC(=O)Nc1ccc(-c2cn3cc(CN4CCN(S(C)(=O)=O)CC4)nc3c(N3CCOCC3)n2)cn1 [2-81]	
	5.74	FC(F)(F)c1cn2cc(-c3cccc4[nH]ncc34)nc(N3CCOCC3)c2n1 [2-20, 2-(trifluoromethyl)-6-(1H-indazol-4-yl)-8-morpholinoimidazo[1,2-a]pyrazine]	
6.05		CN(C)C(=O)c1cn2cc(-c3cccc4[nH]ncc34)nc(N3CCOCC3)c2n1 [2-86]	
5.62		COc1cc(C)c(-c2cn3cc(CN4CCN(S(C)(=O)=O)CC4)nc3c(N3CCOCC3)n2)cn1 [2-153]	
6.11		Cc1ccc(-c2cn3cc(CN4CCN(S(C)(=O)=O)CC4)nc3c(N3CCOCC3)n2)cn1 [2-126]	
	5.52	CNC(=O)Nc1ccc(-c2cn3cc(C)nc3c(N3CCOCC3)n2)cc1 [2-29, 1-methyl-3-(4-(2-methyl-8-morpholinoimidazo[1,2-a]pyrazin-6-yl)phenyl)urea]	
	4.57	CN1CCN(Cc2cn3cc(-c4cccc(O)c4)nc(N4CCOCC4)c3n2)CC1 [2-07, 3-(2a-((4-methylpiperazin-1-yl)methyl)-8-morpholinoimidazo[1,2-a]pyrazin-6-yl)phenol]	
5.14		CC(C)(C)OC(=O)N1CCC2(CCN(Cc3cn4cc(-c5cccc6[nH]ncc56)nc(N5CCOCC5)c4n3)CC2)CC1 [2-98]	
	4.92	Cc1cn2c(Br)c(-c3cccc4[nH]ncc34)nc(N3CCOCC3)c2n1 [2-55, 5-bromo-6-(1H-indazol-4-yl)-2-methyl-8-morpholinoimidazo[1,2-a]pyrazine]	
		Oc1cccc(-c2cn3c(N4CCNCC4)cnc3c(N3CCOCC3)n2)c1 [2-40, 3-(8-morpholino-3-(piperazin-1-yl)imidazo[1,2-a]pyrazin-6-yl)phenol]	pIC50 [3]: 6.00 to 7.00
	5.00	Cc1cn2cc(-c3ccncc3)nc(N3CCOCC3)c2n1 [2-31, 2-methyl-8-morpholino-6-(pyridin-4-yl)imidazo[1,2-a]pyrazine]	
